Experimental data from USRE50715E1, “Synthetic biochemistry molecular purge valve module that maintain co-factor balance” (The Regents of the University of California, priority 2014, dated 2025).
Changes are numbered by the printed parent chain. Names may count otherwise.

Legend:
[1] = molecular target: T1, G. stearothermophilus pyruvate dehydrogenase complex (GsPDH-NAD+, PDH^NADH), wild type (E1a SEQ ID NO: 1, E1b SEQ ID NO: 2, E2 SEQ ID NO: 3, E3^NADH SEQ ID NO: (Geobacillus stearothermophilus, UniProt P11959)); assay: PDH kinetics, monitoring the reduction of NAD(P)^+ at 340 nm; assay type: biochemical
T1 construct: made in house; host or cells: E. coli
Experimental: (§1) The individual domains of G. stearothermophilus PDH were partially purified from E. coli lysates by heat prior to modification and reconstitution of the PDH complex. E1αβ, E2, or E3 containing lysates were incubated at 65° C. for 35 minutes to heat denature E. coli proteins followed by centrifugation at 30,000×g for 20 min to pellet the precipitated proteins. […] Next, the E2 domain was lipoated in the heated extract by the addition of 1 mM (±)-α-lipoic acid, 2 mM ATP, 3 mM MgCl2, and 50 μg of purified 6×His-LplA. The lipoation reaction was then allowed to proceed with gentle mixing overnight at 25° C., yielding lipoated E2 (E2lip). After lipoation, E1αβ, E2lip, and E3 were mixed in a 3:1:3 molar ratio and incubated for at least 1 hour at 25° C. to form the active GsPDH complex. The GsPDH complex was then isolated by ultracentrifugation (Beckman) for 4 hours at 95,000×g. […] The reconstituted complex was stored at 4° C. until use.

[2] = molecular target: T2, L. lactis NADH oxidase (H2O forming), NoxE, SEQ ID NO: 10 (Lactococcus lactis, UniProt Q9CIG9); assay: NoxE kinetics, monitoring the oxidation of NAD(P)H at 340 nm; assay type: biochemical
T2 sequence (Q9CIG9 1-446): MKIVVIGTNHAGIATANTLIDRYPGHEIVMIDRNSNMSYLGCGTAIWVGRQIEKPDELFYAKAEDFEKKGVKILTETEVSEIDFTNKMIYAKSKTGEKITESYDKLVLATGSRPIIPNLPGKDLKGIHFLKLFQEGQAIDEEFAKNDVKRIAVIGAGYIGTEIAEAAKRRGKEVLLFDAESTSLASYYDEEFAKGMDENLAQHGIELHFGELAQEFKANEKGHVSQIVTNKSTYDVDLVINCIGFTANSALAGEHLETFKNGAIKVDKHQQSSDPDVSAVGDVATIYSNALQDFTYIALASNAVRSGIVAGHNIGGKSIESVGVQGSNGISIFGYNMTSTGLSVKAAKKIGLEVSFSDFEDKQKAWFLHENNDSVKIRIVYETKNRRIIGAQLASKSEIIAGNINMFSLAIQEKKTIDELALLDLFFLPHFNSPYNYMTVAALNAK

[3] = molecular target: T3, G. stearothermophilus pyruvate dehydrogenase complex, engineered mutant (GsPDH-NADP, PDH^NADPH), E3 mutant E206V, G207R, A208K, S213R (E3^NADPH SEQ ID NO: 7); E1 (Geobacillus stearothermophilus, UniProt P11959, A208K/E206V/G188A/G192A/G207R/S213R); assay: PDH kinetics, monitoring the reduction of NAD(P)^+ at 340 nm; assay type: biochemical
T3 construct: made in house; host or cells: E. coli
Experimental: as §1

[4] = substrate: NC(=O)c1ccc[n+]([C@@H]2O[C@H](COP(=O)(O)OP(=O)(O)OC[C@H]3O[C@@H](n4cnc5c(N)ncnc54)[C@H](OP(=O)(O)O)[C@@H]3O)[C@@H](O)[C@H]2O)c1; assay: as above; assay type: biochemical, G. stearothermophilus; conditions: other: 50 mM Tris pH 7.5, 5 mM MgCl2, 5 mM pyruvate, 1 mM CoA, 0.5 mM NAD(P)+
[5] = substrate: NC(=O)c1ccc[n+]([C@@H]2O[C@H](COP(=O)(O)OP(=O)(O)OC[C@H]3O[C@@H](n4cnc5c(N)ncnc54)[C@H](O)[C@@H]3O)[C@@H](O)[C@H]2O)c1; assay: as above; assay type: biochemical, G. stearothermophilus; conditions: other: 50 mM Tris pH 7.5, 5 mM MgCl2, 5 mM pyruvate, 1 mM CoA, 0.5 mM NAD(P)+
[6] = substrate: NC(=O)c1ccc[n+]([C@@H]2O[C@H](COP(=O)(O)OP(=O)(O)OC[C@H]3O[C@@H](n4cnc5c(N)ncnc54)[C@H](OP(=O)(O)O)[C@@H]3O)[C@@H](O)[C@H]2O)c1; assay: cells, lysate or membranes named; conditions: other: 50 mM Tris pH 7.5, 5 mM MgCl2, 5 mM pyruvate, 1 mM CoA, 0.5 mM NAD(P)+
[7] = substrate: NC(=O)c1ccc[n+]([C@@H]2O[C@H](COP(=O)(O)OP(=O)(O)OC[C@H]3O[C@@H](n4cnc5c(N)ncnc54)[C@H](O)[C@@H]3O)[C@@H](O)[C@H]2O)c1; assay: cells, lysate or membranes named; conditions: other: 50 mM Tris pH 7.5, 5 mM MgCl2, 5 mM pyruvate, 1 mM CoA, 0.5 mM NAD(P)+
[8] = substrate: NC(=O)C1=CN([C@@H]2O[C@H](COP(=O)(O)OP(=O)(O)OC[C@H]3O[C@@H](n4cnc5c(N)ncnc54)[C@H](OP(=O)(O)O)[C@@H]3O)[C@@H](O)[C@H]2O)C=CC1; assay: purified protein, by the assay type; conditions: other: 100 mM tris-HCl pH 7.5, 5 mM MgCl2, 5 mM KCl, 0.2 mM NAD(P)H
[9] = substrate: NC(=O)C1=CN([C@@H]2O[C@H](COP(=O)(O)OP(=O)(O)OC[C@H]3O[C@@H](n4cnc5c(N)ncnc54)[C@H](O)[C@@H]3O)[C@@H](O)[C@H]2O)C=CC1; assay: purified protein, by the assay type; conditions: other: 100 mM tris-HCl pH 7.5, 5 mM MgCl2, 5 mM KCl, 0.2 mM NAD(P)H

Molecule: NC(=O)c1ccc[n+]([C@@H]2O[C@H](COP(=O)(O)OP(=O)(O)OC[C@H]3O[C@@H](n4cnc5c(N)ncnc54)[C@H](O)[C@@H]3O)[C@@H](O)[C@H]2O)c1 [NAD+, nicotinamide adenine dinucleotide]
- kcat ratio, NAD^+ vs NADP^+ ([1]; kcat higher with NAD^+ than NADP^+): 11.2 times
- kcat/Km ratio, NAD^+ vs NADP^+ ([1]; kcat/Km higher with NAD^+ than NADP^+): 1150 times

Molecule: NC(=O)C1=CN([C@@H]2O[C@H](COP(=O)(O)OP(=O)(O)OC[C@H]3O[C@@H](n4cnc5c(N)ncnc54)[C@H](O)[C@@H]3O)[C@@H](O)[C@H]2O)C=CC1 [NADH]
- Kcat ratio, NADH vs NADPH ([2]; Kcat greater with NADH than NADPH): 248.8 times
- kcat/Km ratio, NADH vs NADPH ([2]; kcat/Km greater with NADH than NADPH): 9900 times

Molecule: NC(=O)c1ccc[n+]([C@@H]2O[C@H](COP(=O)(O)OP(=O)(O)OC[C@H]3O[C@@H](n4cnc5c(N)ncnc54)[C@H](OP(=O)(O)O)[C@@H]3O)[C@@H](O)[C@H]2O)c1 [NADP+]
- kcat ratio, NADP^+ vs NAD+ ([3]; kcat higher with NADP^+ than NAD+): 7.3 times
- kcat/Km ratio, NADP^+ vs NAD+ ([3]; kcat/Km higher with NADP^+ than NAD+): 21 times

B1: G. stearothermophilus pyruvate dehydrogenase complex, engineered mutant (GsPDH-NADP, PDH^NADPH), E3 mutant E206V, G207R, A208K, S213R (E3^NADPH SEQ ID NO: 7; … (protein)
chain: MVVGDFAIETETLVVGAGPGGYVAAIRAAQLGQKVTIVEKGNLGGVCLNVGCIPSKALISASHRYEQAKHSEEMGIKAENVTIDFAKVQEWKASVVKKLTGGVEGLLKGNKVEIVKGEAYFVDANTVRVVNGDSAQTYTFKNAIIATGSRPIELPNFKFSNRILDSTGALNLGEVPKSLVVIGGGYIAIELATAYANFGTKVTILVRKGEILRGFEKQMAAIIKKRLKKKGVEVVTNALAKGAEEREDGVTVTYEANGETKTIDADYVLVTVGRRPNTDELGLEQIGIKMTNRGLIEVDQQCRTSVPNIFAIGDIVPGPALAHKASYEGKVAAEAIAGHPSAVDYVAIPAVVFSDPECASVGYFEQQAKDEGIDVIAAKFPFAANGRALALNDTDGFLKLVVRKEDGVIIGAQIIGPNASDMIAELGLAIEAGMTAEDIALTIHAHPTLGEIAMEAAEVALGTPIHIITK
notes: made in house; host or cells: E. coli
- Km [4]: 157 ± 13 µM
- Km [5]: 452.7 ± 178 µM

B2: G. stearothermophilus pyruvate dehydrogenase complex (GsPDH-NAD+, PDH^NADH), wild type (E1a SEQ ID NO: 1, E1b SEQ ID NO: 2, E2 SEQ ID NO: 3, E3^NADH SEQ ID NO: … (protein)
chain: B1 chain with A188G, A192G, V206E, R207G, K208A, R213S
- Km [6]: 1381 ± 410 µM
- Km [7]: 13.38 ± 0.83 µM

B3: L. lactis NADH oxidase (H2O forming), NoxE, SEQ ID NO: 10 (Lactococcus lactis subsp. lactis Il1403) (protein)
chain: T2 sequence (Q9CIG9 1-446)
- Km [8]: 2951.5 ± 770 µM
- Km [9]: 74.93 ± 26 µM
